# Assay results from PubChem BioAssay AID1963966 (Molecular Pharmacology Branch, DTP, NCI, 2024).
# Tested on: 935938-334-R-J1-PDC spheroids with HUVEC/MSC, viability
# Assay: Anticancer human tumor 935938-334-R-J1-PDC patient-derived small intestine adenocarcinoma cell line growth inhibition [PI3K]
# Conditions: for IC50: curve of first compound; for viability, T/C: stronger effect = lower value
# In short: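 Targeted small molecules plus PI3K inhibitors, half-log dose series from Cmax (default top 10 microM), were applied to heterotypic spheroids of cancer cells with HUVEC and MSCs. Viability indicated growth inhibition.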
# 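Note: compound exposure lasted seven days before viability was read.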
# 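Throughout, for viability, T/C: percent of vehicle DMSO treated spheroid viability so 100% = untreated.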
smiles,measurement,setting,value
CC1(C)CCC(Nc2ncc(C(F)(F)F)c(-c3c[nH]c4c(P(C)(C)=O)c(C#N)ccc34)n2)CN1 (configuration not stated) + Cc1nc(NC(=O)N2CCCC2C(N)=O)sc1-c1ccnc(C(C)(C)C(F)(F)F)c1,IC50,second compound 0.0316 µM,< 31.6 nM
same,IC50,second compound 0.1 µM,< 31.6 nM
same,IC50,second compound 0.316 µM,< 31.6 nM
same,IC50,second compound 1 µM,< 31.6 nM
same,IC50,second compound 3.16 µM,< 31.6 nM
same,IC50,second compound 10 µM,< 31.6 nM
same,"viability, T/C","second compound 0.0316 µM, first compound 0.0316 µM",31.4%
same,"viability, T/C","second compound 0.0316 µM, first compound 0.1 µM",24.9%
same,"viability, T/C","second compound 0.0316 µM, first compound 0.316 µM",39.4%
same,"viability, T/C","second compound 0.0316 µM, first compound 1 µM",33.7%
same,"viability, T/C","second compound 0.0316 µM, first compound 3.16 µM",30.8%
same,"viability, T/C","second compound 0.0316 µM, first compound 10 µM",5.69%
same,"viability, T/C","second compound 0.1 µM, first compound 0.0316 µM",33.6%
same,"viability, T/C","second compound 0.1 µM, first compound 0.1 µM",34.4%
same,"viability, T/C","second compound 0.1 µM, first compound 0.316 µM",31.6%
same,"viability, T/C","second compound 0.1 µM, first compound 1 µM",32.3%
same,"viability, T/C","second compound 0.1 µM, first compound 3.16 µM",36.3%
same,"viability, T/C","second compound 0.1 µM, first compound 10 µM",6.9%
same,"viability, T/C","second compound 0.316 µM, first compound 0.0316 µM",34.6%
same,"viability, T/C","second compound 0.316 µM, first compound 0.1 µM",34.5%
same,"viability, T/C","second compound 0.316 µM, first compound 0.316 µM",26.2%
same,"viability, T/C","second compound 0.316 µM, first compound 1 µM",29.6%
same,"viability, T/C","second compound 0.316 µM, first compound 3.16 µM",27.6%
same,"viability, T/C","second compound 0.316 µM, first compound 10 µM",6.74%
same,"viability, T/C","second compound 1 µM, first compound 0.0316 µM",38.3%
same,"viability, T/C","second compound 1 µM, first compound 0.1 µM",26.2%
same,"viability, T/C","second compound 1 µM, first compound 0.316 µM",23.7%
same,"viability, T/C","second compound 1 µM, first compound 1 µM",20.8%
same,"viability, T/C","second compound 1 µM, first compound 3.16 µM",23.7%
same,"viability, T/C","second compound 1 µM, first compound 10 µM",4.15%
same,"viability, T/C","second compound 3.16 µM, first compound 0.0316 µM",24.6%
same,"viability, T/C","second compound 3.16 µM, first compound 0.1 µM",22.6%
same,"viability, T/C","second compound 3.16 µM, first compound 0.316 µM",24.5%
same,"viability, T/C","second compound 3.16 µM, first compound 1 µM",25.2%
same,"viability, T/C","second compound 3.16 µM, first compound 3.16 µM",25.2%
same,"viability, T/C","second compound 3.16 µM, first compound 10 µM",3.91%
same,"viability, T/C","second compound 10 µM, first compound 0.0316 µM",25.6%
same,"viability, T/C","second compound 10 µM, first compound 0.1 µM",23.8%
same,"viability, T/C","second compound 10 µM, first compound 0.316 µM",26.2%
same,"viability, T/C","second compound 10 µM, first compound 1 µM",24.7%
same,"viability, T/C","second compound 10 µM, first compound 3.16 µM",19.9%
same,"viability, T/C","second compound 10 µM, first compound 10 µM",2.1%
